Measurements as given in patent publication US20110027354A1, “ANTI-PA[…]” (priority 2008, published 2011).
“Also recorded” adds a separate entry of the source.

Key:
mice [1] = assay: Locomotor activity after repeated treatment with drug alone; type: in vivo; settings: repeated treatment i.p./day×7, selegiline or MPPE 2.5 or 5.0 mg/kg, MA 0.5 or 1.0 mg/kg; for locomotor activities: vs. saline
Method: Selegiline or […] was injected (2.5 or 5 mg/kg, i.p.) once a day for 7 consecutive days. Methamphetamine, a positive control, was also administered (0.5 or 1 mg/kg, i.p.) once a day for 7 days.
Locomotor activity measured for 30 min one day after the last MPTP administration using an automated video-tracking system (Noldus Information Technology, Wagenin, The Netherlands). Eight test boxes (40×40×30 cm high) were operated simultaneously by an IBM computer. Animals were studied individually during locomotion in each test box, where they were adapted for 5 min before starting the experiment. […] The distance traveled in cm by the animals in horizontal locomotor activity was analyzed. Data were collected and analyzed between 09:00 and 17:00 h (Kim et al., 2001).

mice [2] = assay: Conditioned place preference (CPP); type: in vivo; settings: selegiline or MPPE 2.5 or 5.0 mg/kg i.p., MA 0.5 or 1.0 mg/kg i.p.; vs. saline
Method: For conditioned place preference (CPP) test, mice received an i.p. injection of saline just before entering the […] compartment. MA (0.5 or 1.0 mg/kg, i.p.), selegiline (2.5 or 5.0 mg/kg, i.p.), and MPPE (2.5 or 5.0 mg/kg, i.p.) dissolved in saline was administered immediately before the mice were placed in the white compartment. On day 1, the mice were pre-exposed to the test apparatus for 15 minutes. The guillotine style doors were raised and mice were allowed to move freely between the two compartments. On day 2, the time each mouse spent in each compartment was recorded for 15 minutes. On days 3, 5, 7, 9, 11, and 13, the mice were injected with each drug before being confined to the white compartment, the non-preferred side, for 40 minutes. On day 14, the guillotine doors were raised. The mice were initially placed in the tunnel and the time spent by the mice in the two compartments was recorded for 15 minutes. The scores were calculated from the differences in the time spent in the white compartment in the testing and pre-testing phases. Data were analyzed between 09:00 and 17:00 hours.

[3] = system: tyrosine hydroxylase (TH); assay: Western blotting for pan-TH and TH phosphorylation; type: in vivo, mice; settings: for effect on MPTP-induced decrease of TH phosphorylation at Ser19, Ser31 and Ser40: pre-treatment; for effect on MPTP-induced decrease of TH phosphorylation at Ser19, Ser31 and Ser40 / effect on MPTP-induced decrease of TH-immunoreactivity (TH-IR): vs. MPTP alone
Method: (§1) The western blot assays were performed as described previously (thong et al., 1997). Tissues were homogenized in lysis buffer, containing 200 mM Tris HCl (pH 6.8), 1% SDS, 5 mM ethylene glycol tetraacetic acid, 5 mM ethylenediaminetetraacetic acid, 10% glycerol, 1× phosphatase inhibitor cocktail I, 1× protease inhibitor cocktail. The supernatant fraction was subsequently centrifuged at 30,000×g for 30 min. The resulting pellet was resuspended in the sample buffer. Proteins (20-50 ug/lane) were separated by 6%, 8%, 10% or 15% sodium dodecyl sulfate-polyacrylamide gel electrophoresis and transferred onto the nitrocellulose membranes. Following transfer, the nitrocellulose membranes were preincubated with 5% non-fat milk and incubated overnight at 4° C. with anti-β-actin (Sigma, 1:50000), anti-TH (Chemicon, 1:5000), anti-TH phosphoser19 (Chemicon, 1:5000), anti-TH phosphoser31 (Chemicon, 1:500), anti-TH phosphoser40 (Chemicon, 1:500), anti-F 4/80 (Serotec, 1:500), anti-BDNF (Chemicon, 1:500), anti-GDNF (Santa-Cruz, 1:250), anti-Akt (Cell signaling, 1:1000), anti-phospho Akt ser 473 (Cell signaling, 1:1000), anti-PI3K (Cell signaling, 1:1000), anti-phospho PI3K (Cell signaling, 1:500) and anti-α-synuclein (BD Transduction, 1:500) antibody. After incubation with primary antibody, membranes were incubated with the secondary anti-rabbit IgG, Horseradish Peroxidase (1:1000 dilution, Amersham) or anti-mouse IgG, Horseradish Peroxidase (1:1000, Sigma), or anti-goat IgG, Horseradish Peroxidase (1:1000, Sigma) for 2 h, washed. Subsequently visualized with the Amersham ECL system (Amersham, Arlington Heights, Ill., USA).

[4] = system: reactive oxygen species (ROS); assay: Determination of ROS formation; type: in vivo, mice; settings: striatum; for ROS level: drug alone (no MPTP); for effect on MPTP-induced increase in ROS level: one day after final MPTP, vs. MPTP alone
Method: The extent of reactive oxygen species (ROS) formation in the prefrontal cortex was assessed by measuring the conversion from 2′,7′-dichlorofluorescin diacetate (DCFH-DA) to dichlorofluoresin. (DCF) as describe by Bourre et al. with slight modification (Sutsumi, S et al., 2002). Brain homogenates were added to a tube containing 2 ml of PBS with 10 nmole of DCFH-DA, dissolved in methanol. Mixtures were incubated at 37° C. for 3 h and then measured the […] at 480 nm excitation and 525 nm emission. DCF is used as a standard.

protein carbonyl = assay: Determination of protein carbonyl (Oxyblot assay); type: in vivo, mice; settings: striatum; for protein carbonyl expression: drug alone (no MPTP); for effect on MPTP-induced increase in protein carbonyl expression: one day after final MPTP, vs. MPTP alone
Method: Total protein ([…]) was used to perform the Oxyblot assay. The amount of oxidized proteins was measured using the Oxyblot kit (Chemicon International, CA), following the manufacturer's instructions. Briefly, the protein carbonyl content was measured by first forming labeled protein hydrazone derivatives using 2,4-dinitrophenylhydrazide (DNP). The INP-derivatized protein samples were separated by polyacrylamide gel electrophoresis followed by Western blotting. Blots were then incubated with primary antibody specific to the DNP moiety, followed by incubation with a horseradish peroxidase-antibody conjugate directed against the primary antibody. The blots were then treated with chemiluminescent reagents (Amersham) (Gemma et al., 2004).

α-synuclein = assay: Oligomergic α-synuclein expression (western blot); type: in vivo, mice; settings: striatum; for effect on MPTP-induced increase in oligomergic α-synuclein: vs. MPTP alone
Method: as §1

[5] = system: brain derived neurotrophic factor (BDNF); assay: BDNF expression (western blot); type: in vivo, mice; settings: striatum; for effect on MPTP-induced reduction of BDNF expression: pre-treatment, vs. MPTP alone
Method: as §1

[6] = system: glial cell line-derived neurotrophic factor (GDNF); assay: GDNF expression (western blot); type: in vivo, mice; settings: striatum; for effect on MPTP-induced reduction of GDNF expression: pre-treatment, vs. MPTP alone
Method: as §1

phospho-PI3K = assay: Phosphorylation of PI3K (western blot); type: in vivo, mice; settings: striatum; for effect on MPTP-induced decrease in phospho-PI3K: vs. MPTP alone
Method: as §1

MPTP-treated mice = assay: Rota-rod test in MPTP-treated mice; settings: 2.5 mg/kg i.p.; for effect on MPTP-impaired Rota-rod performance: vs. MPTP alone
Method: The apparatus (Ugo Basile model 7650) consisted of a base platform and a rotating rod with a nonslippery surface. The rod was placed at a height of 15 cm from the base. The rod, 30 cm in length, was divided into 5 equal sections by 6 opaque disks (so that the subjects cannot be distracted by one another). To assess motor performance, the mice were first trained on the apparatus 2 minutes at a rate 4 r.p.m. per 30 s prior to the test. The test was performed 30 minutes after training and an accelerating paradigm was applied at a rate 4 r.p.m. per 30 s, starting from 4 r.p.m. to a maximum speed of 40 r.p.m., then the rotation speed was kept constant at 40 r.p.m. for a maximum of 300 s. The duration for which the animal could maintain balance on the rotating drum was measured as the rotarod latency, with a maximal cut-off time of 300 s.

## C#CCN(C)CCc1ccccc1 [MPPE, N-methyl-N-propynyl-2-phenylethylamine]
Mice [1]
  locomotor patterns: comparable to those by saline; also recorded: did not show these behavioural side effects
  locomotor activities: did not significantly alter locomotor activities
Mice [2]
  conditioned place preference (CPP): did not significantly change
[3]; SN
  effect on MPTP-induced decrease of TH phosphorylation at Ser19, Ser31 and Ser40: reversed
[3]; SN, western blotting
  effect on MPTP-induced decrease of TH-immunoreactivity (TH-IR): attenuated
[3]; striatum and SN, vs. selegiline+MPTP
  effect on TH phosphorylation at Ser19, Ser31 and Ser40 compared with selegiline: more effective
[3]; striatum and SN, western blotting, vs. selegiline+MPTP
  attenuation of TH-IR decrease compared with selegiline: more evident
[3]; striatum
  effect on MPTP-induced decrease of TH phosphorylation at Ser19, Ser31 and Ser40: reversed
[3]; striatum, western blotting
  effect on MPTP-induced decrease of TH-immunoreactivity (TH-IR): attenuated
[4]
  ROS level: a little induction
  effect on MPTP-induced increase in ROS level: attenuated
[4]; vs. selegiline+MPTP
  attenuation of ROS increase compared with selegiline: appeared to be more underlined in the MPPE-pretreated mice
Protein carbonyl
  protein carbonyl expression: a little induction
  effect on MPTP-induced increase in protein carbonyl expression: attenuated
Protein carbonyl; vs. selegiline+MPTP
  attenuation of protein carbonyl increase compared with selegiline: appeared to be more underlined in the MPPE-pretreated mice
α-synuclein
  effect on MPTP-induced increase in oligomergic α-synuclein: significantly attenuated
α-synuclein; vs. selegiline+MPTP
  protection against α-synuclein increase compared with selegiline: more protective effect
[5]
  effect on MPTP-induced reduction of BDNF expression: significantly attenuated
[5]; vs. selegiline+MPTP
  enhancement of BDNF expression compared with selegiline: more effective
[6]
  effect on MPTP-induced reduction of GDNF expression: significantly attenuated
[6]; vs. selegiline+MPTP
  enhancement of GDNF expression compared with selegiline: more effective
phospho-PI3K
  effect on MPTP-induced decrease in phospho-PI3K: significantly attenuated
phospho-PI3K; vs. selegiline+MPTP
  attenuation of phospho-PI3K decrease compared with selegiline: more pronounced in MPPE-treated mice
MPTP-treated mice
  effect on MPTP-impaired Rota-rod performance: significantly attenuated
MPTP-treated mice; vs. selegiline-pretreated
  attenuation of MPTP-reduced rota-rod performance compared with selegiline: more pronounced in the MPPE-pretreated mice than selegiline-pretreated case

## C#CCN(C)[C@H](C)Cc1ccccc1 [selegiline, reference compound]
Mice [1]
  locomotor patterns: circling locomotor patterns
  locomotor activities: significantly increased
Mice [1]; listed as Sel
  locomotor patterns: typical circling locomotor patterns
Mice [2]
  conditioned place preference (CPP): significantly increased compared with saline
[3]; SN
  effect on MPTP-induced decrease of TH phosphorylation at Ser19, Ser31 and Ser40: reversed
[3]; SN, western blotting
  effect on MPTP-induced decrease of TH-immunoreactivity (TH-IR): attenuated
[3]; striatum
  effect on MPTP-induced decrease of TH phosphorylation at Ser19, Ser31 and Ser40: reversed
[3]; striatum, western blotting
  effect on MPTP-induced decrease of TH-immunoreactivity (TH-IR): attenuated
[4]
  ROS level: a little induction
  effect on MPTP-induced increase in ROS level: attenuated
Protein carbonyl
  protein carbonyl expression: a little induction
  effect on MPTP-induced increase in protein carbonyl expression: attenuated
α-synuclein
  effect on MPTP-induced increase in oligomergic α-synuclein: significantly attenuated
[5]
  effect on MPTP-induced reduction of BDNF expression: significantly attenuated
[6]
  effect on MPTP-induced reduction of GDNF expression: significantly attenuated
phospho-PI3K
  effect on MPTP-induced decrease in phospho-PI3K: significantly attenuated
MPTP-treated mice
  effect on MPTP-impaired Rota-rod performance: significantly attenuated
